Laboratory results reported in ChEMBL document CHEMBL1201861, “Genomics of Drug Sensitity in Cancer screening data, Wellcome Trust Sanger Institute”.

Experiments:
Test in all cases: cells
Type in all cases: functional, cell-based
Conditions in all cases: Homo sapiens
RKO = system: RKO;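 further: growth inhibition of human RKO cells, read out with a cell viability assay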
Description: SANGER: Inhibition of human RKO cell growth in a cell viability assay.

DJM-1 = system: DJM-1;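 further: growth inhibition of human DJM-1 cells, read out by a cell viability assay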
Description: SANGER: Inhibition of human DJM-1 cell growth in a cell viability assay.

MZ2-MEL = system: MZ2-MEL;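 further: growth inhibition of MZ2-MEL cells read out with a cell viability assay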
Description: SANGER: Inhibition of human MZ2-MEL cell growth in a cell viability assay.

TE-9 = system: TE-9;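 further: cell growth inhibition, measured with a cell viability readout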
Description: SANGER: Inhibition of human TE-9 cell growth in a cell viability assay.

NCI-H747 = system: NCI-H747;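 further: growth inhibition of human NCI-H747 cells, read out by a cell viability assay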
Description: SANGER: Inhibition of human NCI-H747 cell growth in a cell viability assay.

HCC1187 = system: HCC1187;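 further: growth inhibition of HCC1187 cells, read out with a cell viability assay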
Description: SANGER: Inhibition of human HCC1187 cell growth in a cell viability assay.

TE-10 = system: TE-10;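 further: growth inhibition of TE-10 cells, measured by a cell viability assay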
Description: SANGER: Inhibition of human TE-10 cell growth in a cell viability assay.

EW-13 = system: EW-13;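 further: growth inhibition of EW-13 cells, read out with a cell viability assay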
Description: SANGER: Inhibition of human EW-13 cell growth in a cell viability assay.

MLMA = system: MLMA;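 further: growth inhibition of MLMA cells (human), determined through a cell viability readout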
Description: SANGER: Inhibition of human MLMA cell growth in a cell viability assay.

SK-NEP-1 = system: SK-NEP-1;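 further: growth inhibition of human SK-NEP-1 cells, read out by a cell viability assay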
Description: SANGER: Inhibition of human SK-NEP-1 cell growth in a cell viability assay.

OVCAR-4 = system: OVCAR-4;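 further: growth inhibition of human OVCAR-4 cells, measured with a cell viability assay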
Description: SANGER: Inhibition of human OVCAR-4 cell growth in a cell viability assay.

L-428 = system: L-428
Description: SANGER: Inhibition of human L-428 cell growth in a cell viability assay.

DEL = system: DEL;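 further: growth inhibition of the human DEL cell line, read out with a cell viability assay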
Description: SANGER: Inhibition of human DEL cell growth in a cell viability assay.

CGTH-W-1 = system: CGTH-W-1;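 further: growth inhibition of human CGTH-W-1 cells measured by cell viability assay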
Description: SANGER: Inhibition of human CGTH-W-1 cell growth in a cell viability assay.

SK-UT-1 = system: SK-UT-1;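 further: growth inhibition of SK-UT-1 cells, measured by a cell viability assay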
Description: SANGER: Inhibition of human SK-UT-1 cell growth in a cell viability assay.

U-266 = system: U-266
Description: SANGER: Inhibition of human U-266 cell growth in a cell viability assay.

CCRF-CEM = system: CCRF-CEM;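 further: inhibition of CCRF-CEM cell growth, measured by a cell viability assay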
Description: SANGER: Inhibition of human CCRF-CEM cell growth in a cell viability assay.

TGBC1TKB = system: TGBC1TKB;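 further: growth inhibition of TGBC1TKB cells, read out by a cell viability assay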
Description: SANGER: Inhibition of human TGBC1TKB cell growth in a cell viability assay.

KINGS-1 = system: KINGS-1;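 further: cell viability assay measuring suppression of KINGS-1 cell growth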
Description: SANGER: Inhibition of human KINGS-1 cell growth in a cell viability assay.

MFM-223 = system: MFM-223
Description: SANGER: Inhibition of human MFM-223 cell growth in a cell viability assay.

KALS-1 = system: KALS-1;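 further: growth inhibition of KALS-1 cells, determined with a cell viability assay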
Description: SANGER: Inhibition of human KALS-1 cell growth in a cell viability assay.

BB49-HNC = system: BB49-HNC;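 further: cell viability assay read-out, reported as inhibition of BB49-HNC cell growth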
Description: SANGER: Inhibition of human BB49-HNC cell growth in a cell viability assay.

OCI-AML2 = system: OCI-AML2;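 further: growth inhibition of OCI-AML2 cells, read out with a cell viability assay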
Description: SANGER: Inhibition of human OCI-AML2 cell growth in a cell viability assay.

NCI-H1299 = system: NCI-H1299;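 further: growth inhibition of human NCI-H1299 cells, read out by a cell viability assay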
Description: SANGER: Inhibition of human NCI-H1299 cell growth in a cell viability assay.

NCI-H1304 = system: NCI-H1304;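 further: growth inhibition of the cancer cell line, measured in a cell viability assay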
Description: SANGER: Inhibition of human NCI-H1304 cell growth in a cell viability assay.

HT = system: HT
Description: SANGER: Inhibition of human HT cell growth in a cell viability assay.

LNCaP-Clone-FGC = system: LNCaP-Clone-FGC
Description: SANGER: Inhibition of human LNCaP-Clone-FGC cell growth in a cell viability assay.

GT3TKB = system: GT3TKB;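 further: growth inhibition of the cell line, read out with a cell viability assay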
Description: SANGER: Inhibition of human GT3TKB cell growth in a cell viability assay.

RCC10RGB = system: RCC10RGB;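 further: growth inhibition of human RCC10RGB cells, read out by a cell viability assay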
Description: SANGER: Inhibition of human RCC10RGB cell growth in a cell viability assay.

LB2518-MEL = system: LB2518-MEL;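 further: growth inhibition of human LB2518-MEL cells, measured with a cell viability assay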
Description: SANGER: Inhibition of human LB2518-MEL cell growth in a cell viability assay.

ES3 = system: ES3;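 further: growth inhibition of ES3 cells, read out with a cell viability assay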
Description: SANGER: Inhibition of human ES3 cell growth in a cell viability assay.

no-10 = system: no-10;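 further: growth inhibition of no-10 cells, read out with a cell viability assay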
Description: SANGER: Inhibition of human no-10 cell growth in a cell viability assay.

A101D = system: A101D;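 further: growth inhibition of the cell line, measured with a viability assay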
Description: SANGER: Inhibition of human A101D cell growth in a cell viability assay.

DSH1 = system: DSH1;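 further: growth inhibition of human DSH1 cells, measured with a cell viability readout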
Description: SANGER: Inhibition of human DSH1 cell growth in a cell viability assay.

DMS-114 = system: DMS-114
TE-5 = system: TE-5;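 further: inhibition of cell growth, read out by a cell viability assay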
Description: SANGER: Inhibition of human TE-5 cell growth in a cell viability assay.

A388 = system: A388;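 further: growth inhibition of human A388 cells, read out with a cell viability assay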
Description: SANGER: Inhibition of human A388 cell growth in a cell viability assay.

NCI-H446 = system: NCI-H446;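 further: growth inhibition of NCI-H446 cells determined by a cell viability assay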
Description: SANGER: Inhibition of human NCI-H446 cell growth in a cell viability assay.

HEL = system: HEL;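 further: growth inhibition of HEL cells, read out with a cell viability assay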
Description: SANGER: Inhibition of human HEL cell growth in a cell viability assay.

TE-6 = system: TE-6;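 further: growth inhibition of TE-6 cells, read out with a cell viability assay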
Description: SANGER: Inhibition of human TE-6 cell growth in a cell viability assay.

UACC-257 = system: UACC-257
Description: SANGER: Inhibition of human UACC-257 cell growth in a cell viability assay.

EKVX = system: EKVX;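 further: growth inhibition of human EKVX cells, read out with a cell viability assay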
Description: SANGER: Inhibition of human EKVX cell growth in a cell viability assay.

K562 = system: K562
Description: SANGER: Inhibition of human K-562 cell growth in a cell viability assay.

NCI-H82 = system: NCI-H82;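 further: growth inhibition of NCI-H82 cells, measured with a cell viability readout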
Description: SANGER: Inhibition of human NCI-H82 cell growth in a cell viability assay.

COLO-800 = system: COLO-800;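 further: growth inhibition of COLO-800 cells, read out with a cell viability assay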
Description: SANGER: Inhibition of human COLO-800 cell growth in a cell viability assay.

HAL-01 = system: HAL-01;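 further: growth inhibition of human HAL-01 cells, read out with a cell viability assay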
Description: SANGER: Inhibition of human HAL-01 cell growth in a cell viability assay.

MOLT-4 = system: MOLT-4;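 further: growth inhibition of MOLT-4 cells, determined with a cell viability readout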
Description: SANGER: Inhibition of human MOLT-4 cell growth in a cell viability assay.

SK-MEL-1 = system: SK-MEL-1;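 further: growth inhibition of human SK-MEL-1 cells, read out by a cell viability assay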
Description: SANGER: Inhibition of human SK-MEL-1 cell growth in a cell viability assay.

NCI-H510A = system: NCI-H510A;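 further: growth inhibition of NCI-H510A cells, read out with a cell viability assay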
Description: SANGER: Inhibition of human NCI-H510A cell growth in a cell viability assay.

EW-11 = system: EW-11;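 further: growth inhibition of human EW-11 cells, measured with a cell viability assay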
Description: SANGER: Inhibition of human EW-11 cell growth in a cell viability assay.

HH = system: HH
Description: SANGER: Inhibition of human HH cell growth in a cell viability assay.

ES4 = system: ES4;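 further: growth inhibition of human ES4 cells, read out by a cell viability assay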
Description: SANGER: Inhibition of human ES4 cell growth in a cell viability assay.

HD-MY-Z = system: HD-MY-Z;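 further: growth inhibition of HD-MY-Z cells, read out with a cell viability assay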
Description: SANGER: Inhibition of human HD-MY-Z cell growth in a cell viability assay.

JVM-3 = system: JVM-3;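 further: growth inhibition of human JVM-3 cells, read out with a cell viability assay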
Description: SANGER: Inhibition of human JVM-3 cell growth in a cell viability assay.

ONS-76 = system: ONS-76;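 further: growth inhibition of human ONS-76 cells, read out with a cell viability assay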
Description: SANGER: Inhibition of human ONS-76 cell growth in a cell viability assay.

COLO-824 = system: COLO-824
Description: SANGER: Inhibition of human COLO-824 cell growth in a cell viability assay.

KARPAS-45 = system: KARPAS-45;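 further: inhibition of cell line growth, read out through a viability assay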
Description: SANGER: Inhibition of human KARPAS-45 cell growth in a cell viability assay.

SW982 = system: SW982;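 further: growth inhibition of SW982 cells, read out with a cell viability assay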
Description: SANGER: Inhibition of human SW982 cell growth in a cell viability assay.

KP-N-YS = system: KP-N-YS
Description: SANGER: Inhibition of human KP-N-YS cell growth in a cell viability assay.

LAMA-84 = system: LAMA-84
Description: SANGER: Inhibition of human LAMA-84 cell growth in a cell viability assay.

NOS-1 = system: NOS-1
Description: SANGER: Inhibition of human NOS-1 cell growth in a cell viability assay.

COLO-320-HSR = system: COLO-320-HSR
Description: SANGER: Inhibition of human COLO-320-HSR cell growth in a cell viability assay.

NCI-H1092 = system: NCI-H1092
Description: SANGER: Inhibition of human NCI-H1092 cell growth in a cell viability assay.

L-363 = system: L-363
Description: SANGER: Inhibition of human L-363 cell growth in a cell viability assay.

SK-N-DZ = system: SK-N-DZ
Description: SANGER: Inhibition of human SK-N-DZ cell growth in a cell viability assay.

NB10 = system: NB10
Description: SANGER: Inhibition of human NB10 cell growth in a cell viability assay.

Measured: IC50

O=c1[nH]c2ccccc2n1C1CCN(Cc2ccc(-c3nc4cc5[nH]cnc5cc4nc3-c3ccccc3)cc2)CC1
> 2560 nM: RKO | DJM-1 | MZ2-MEL | TE-9 | NCI-H747 | HCC1187 | TE-10 | EW-13 | MLMA | SK-NEP-1 | OVCAR-4 | L-428 | DEL | CGTH-W-1 | U-266 | CCRF-CEM | TGBC1TKB | KINGS-1 | MFM-223 | KALS-1 | BB49-HNC | OCI-AML2 | NCI-H1299 | NCI-H1304 | HT | LNCaP-Clone-FGC | GT3TKB | RCC10RGB | LB2518-MEL | ES3 | no-10 | A101D | DMS-114 | TE-5 | A388 | NCI-H446 | HEL | TE-6 | UACC-257 | EKVX | K562 | NCI-H82 | COLO-800 | HAL-01 | MOLT-4 | SK-MEL-1 | NCI-H510A | EW-11 | HH | ES4 | HD-MY-Z | JVM-3 | ONS-76 | COLO-824 | KARPAS-45 | SW982 | KP-N-YS | LAMA-84 | COLO-320-HSR | NCI-H1092 | L-363 | SK-N-DZ | NB10
1370 nM: NOS-1
1350 nM: SK-UT-1
987 nM: DSH1

Fc1cc(-c2cc[nH]/c(=N/c3ccc(-n4cnc(N5CCOCC5)n4)cc3)n2)cc(N2CCOCC2)c1
2000 nM: TE-6
1430 nM: NCI-H1304
2840 nM: EKVX
2950 nM: LAMA-84
302 nM: GT3TKB
1390 nM: ES4
121 nM: SW982
889 nM: RCC10RGB
903 nM: LNCaP-Clone-FGC
69.2 nM: TE-9
704 nM: HAL-01
484 nM: MLMA
1240 nM: UACC-257
366 nM: NCI-H1299
649 nM: L-428
637 nM: COLO-824
1300 nM: NB10
61.6 nM: SK-UT-1
550 nM: SK-NEP-1
82.5 nM: CGTH-W-1
467 nM: OVCAR-4
709 nM: DSH1
795 nM: KARPAS-45
245 nM: A101D
117 nM: RKO
695 nM: KP-N-YS
364 nM: CCRF-CEM
> 5120 nM: DJM-1 | KINGS-1 | MFM-223 | BB49-HNC | DMS-114 | K562 | NCI-H82 | NCI-H510A | HH | JVM-3
716 nM: MOLT-4
1840 nM: no-10
339 nM: TE-5
498 nM: OCI-AML2
1090 nM: ES3
1990 nM: COLO-800
882 nM: U-266
305 nM: TE-10
1210 nM: EW-11
307 nM: NOS-1
445 nM: L-363
540 nM: LB2518-MEL
594 nM: HCC1187
548 nM: HEL
289 nM: DEL
451 nM: KALS-1
1880 nM: TGBC1TKB
1140 nM: NCI-H446 | HD-MY-Z
1050 nM: NCI-H747
297 nM: EW-13
410 nM: MZ2-MEL
518 nM: COLO-320-HSR
1760 nM: NCI-H1092
1330 nM: SK-MEL-1
1940 nM: A388
396 nM: ONS-76
633 nM: HT
1860 nM: SK-N-DZ

CC(O)(CS(=O)(=O)c1ccc(F)cc1)C(=O)Nc1ccc(C#N)c(C(F)(F)F)c1 (centres undefined) [BICALUTAMIDE]
> 1020 nM: RKO | DJM-1 | MZ2-MEL | TE-9 | NCI-H747 | HCC1187 | TE-10 | EW-13 | MLMA | SK-NEP-1 | OVCAR-4 | L-428 | DEL | CGTH-W-1 | SK-UT-1 | U-266 | CCRF-CEM | TGBC1TKB | KINGS-1 | MFM-223 | KALS-1 | BB49-HNC | OCI-AML2 | NCI-H1299 | NCI-H1304 | HT | LNCaP-Clone-FGC | GT3TKB | RCC10RGB | LB2518-MEL | ES3 | no-10 | A101D | DSH1 | DMS-114 | TE-5 | A388 | NCI-H446 | HEL | TE-6 | UACC-257 | EKVX | K562 | NCI-H82 | COLO-800 | HAL-01 | MOLT-4 | SK-MEL-1 | NCI-H510A | EW-11 | HH | ES4 | HD-MY-Z | JVM-3 | ONS-76 | COLO-824 | KARPAS-45 | SW982 | KP-N-YS | LAMA-84 | NOS-1 | COLO-320-HSR | NCI-H1092 | L-363 | SK-N-DZ | NB10

COc1cc(Nc2c(C#N)cnc3cc(OCCCN4CCN(C)CC4)c(OC)cc23)c(Cl)cc1Cl [BOSUTINIB]
1090 nM: HAL-01
907 nM: MLMA
1440 nM: DEL
1680 nM: ONS-76
1050 nM: JVM-3
1940 nM: A101D
1640 nM: HD-MY-Z
287 nM: LAMA-84
1210 nM: ES4
925 nM: KARPAS-45
972 nM: SK-NEP-1
> 2000 nM: RKO | DJM-1 | MZ2-MEL | TE-9 | NCI-H747 | HCC1187 | TE-10 | EW-13 | OVCAR-4 | L-428 | CGTH-W-1 | SK-UT-1 | U-266 | CCRF-CEM | TGBC1TKB | KINGS-1 | MFM-223 | KALS-1 | BB49-HNC | OCI-AML2 | NCI-H1299 | NCI-H1304 | HT | LNCaP-Clone-FGC | GT3TKB | RCC10RGB | LB2518-MEL | ES3 | no-10 | DSH1 | DMS-114 | TE-5 | A388 | NCI-H446 | HEL | TE-6 | UACC-257 | EKVX | K562 | NCI-H82 | COLO-800 | MOLT-4 | SK-MEL-1 | NCI-H510A | EW-11 | HH | COLO-824 | SW982 | KP-N-YS | NOS-1 | COLO-320-HSR | NCI-H1092 | L-363 | SK-N-DZ | NB10
